Test results from PubChem BioAssay (NCI).
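Cultured in 96-well plates, cells were exposed to test compound for 48 hours across five concentrations. At the GI50, growth is halved. At the TGI there is no net growth.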

How the values were obtained:
Experiment in all cases: NCI-60 cell line screen, 48 h
A498 renal = system: A498 renal
A549 NSCLC = system: A549 NSCLC
ACHN renal = system: ACHN renal
BT-549 breast = system: BT-549 breast
CAKI-1 renal = system: CAKI-1 renal
CCRF-CEM leukemia = system: CCRF-CEM leukemia
DU-145 prostate = system: DU-145 prostate
EKVX NSCLC = system: EKVX NSCLC
HCC-2998 colon = system: HCC-2998 colon
HCT-116 colon = system: HCT-116 colon
HCT-15 colon = system: HCT-15 colon
HL-60(TB) leukemia = system: HL-60(TB) leukemia
HOP-92 NSCLC = system: HOP-92 NSCLC
HS 578T breast = system: HS 578T breast
HT29 colon = system: HT29 colon
IGROV1 ovarian = system: IGROV1 ovarian
K-562 leukemia = system: K-562 leukemia
KM12 colon = system: KM12 colon
LOX IMVI melanoma = system: LOX IMVI melanoma
M14 melanoma = system: M14 melanoma
MALME-3M melanoma = system: MALME-3M melanoma
MCF7 breast = system: MCF7 breast
MDA-MB-231 breast = system: MDA-MB-231 breast
MDA-MB-435 = system: MDA-MB-435
MOLT-4 leukemia = system: MOLT-4 leukemia
NCI-H226 lung = system: NCI-H226 lung
NCI-H23 lung = system: NCI-H23 lung
NCI-H460 lung = system: NCI-H460 lung
NCI/ADR-RES ovarian = system: NCI/ADR-RES ovarian
OVCAR-3 ovarian = system: OVCAR-3 ovarian
OVCAR-4 ovarian = system: OVCAR-4 ovarian
OVCAR-5 ovarian = system: OVCAR-5 ovarian
OVCAR-8 ovarian = system: OVCAR-8 ovarian
PC-3 prostate = system: PC-3 prostate
RXF 393 renal = system: RXF 393 renal
SF-268 CNS = system: SF-268 CNS
SF-295 CNS = system: SF-295 CNS
SF-539 CNS = system: SF-539 CNS
SK-MEL-2 melanoma = system: SK-MEL-2 melanoma
SK-MEL-28 melanoma = system: SK-MEL-28 melanoma
SK-MEL-5 melanoma = system: SK-MEL-5 melanoma
SK-OV-3 ovarian = system: SK-OV-3 ovarian
SN12C renal = system: SN12C renal
SNB-19 CNS = system: SNB-19 CNS
SNB-75 CNS = system: SNB-75 CNS
SR leukemia = system: SR leukemia
SW-620 colon = system: SW-620 colon
T-47D breast = system: T-47D breast
TK-10 renal = system: TK-10 renal
UACC-257 melanoma = system: UACC-257 melanoma
UACC-62 melanoma = system: UACC-62 melanoma
UO-31 renal = system: UO-31 renal

In the case of COc1cc(-c2ccc(-c3ccc(C(=N)N)cc3)s2)cc(OC)c1OC, the GI50 (A498 renal) is reported as 0.215 µM, the TGI (A498 renal) is reported as 3.96 µM and the GI50 (A549 NSCLC) is reported as 3.63 µM. The TGI (A549 NSCLC) was 14.7 µM, the GI50 (ACHN renal) was 1.73 µM and the TGI (ACHN renal) was 3.19 µM. The GI50 (BT-549 breast) was 2.69 µM, the TGI (BT-549 breast) was 9.4 µM and the GI50 (CAKI-1 renal) was 1.72 µM. The TGI (CAKI-1 renal) was 3.22 µM, the GI50 (CCRF-CEM leukemia) was 2.93 µM and the TGI (CCRF-CEM leukemia) was 11.7 µM. The GI50 (DU-145 prostate) was 2.41 µM, the TGI (DU-145 prostate) was 6.09 µM and the GI50 (EKVX NSCLC) was 4.69 µM. It also gave a TGI (EKVX NSCLC) of 19.7 µM, a GI50 (HCC-2998 colon) of 1.79 µM and a TGI (HCC-2998 colon) of 3.24 µM. It also gave a GI50 (HCT-116 colon) of 1.56 µM, a TGI (HCT-116 colon) of 3.19 µM and a GI50 (HCT-15 colon) of 2.25 µM. It also gave a TGI (HCT-15 colon) of 5.29 µM, a GI50 (HL-60(TB) leukemia) of 2.13 µM and a TGI (HL-60(TB) leukemia) of 4.75 µM. The GI50 (HOP-92 NSCLC) was 1.29 µM, the TGI (HOP-92 NSCLC) was 3.72 µM and the GI50 (HS 578T breast) was 1.75 µM. The TGI (HS 578T breast) was 4.16 µM, the GI50 (HT29 colon) was 1.5 µM and the TGI (HT29 colon) was 5.56 µM. The GI50 (IGROV1 ovarian) was 5 µM, the TGI (IGROV1 ovarian) was 18.5 µM and the GI50 (K-562 leukemia) was 2.63 µM. It also gave a TGI (K-562 leukemia) of 10.2 µM, a GI50 (KM12 colon) of 1.67 µM and a TGI (KM12 colon) of 3.35 µM. For the same compound, the GI50 (LOX IMVI melanoma) was 1.72 µM, the TGI (LOX IMVI melanoma) was 3.1 µM and the GI50 (M14 melanoma) was 1.62 µM. It also gave a TGI (M14 melanoma) of 3.36 µM, a GI50 (MALME-3M melanoma) of 1.46 µM and a TGI (MALME-3M melanoma) of 2.9 µM. The GI50 (MCF7 breast) was 1.65 µM, the TGI (MCF7 breast) was 4.36 µM and the GI50 (MDA-MB-231 breast) was 1.62 µM. For the same compound, the TGI (MDA-MB-231 breast) was 3.26 µM, the GI50 (MDA-MB-435) was 1.57 µM and the TGI (MDA-MB-435) was 3.01 µM. It also gave a GI50 (MOLT-4 leukemia) of 2.2 µM, a TGI (MOLT-4 leukemia) of 6.15 µM and a GI50 (NCI-H226 lung) of 2.16 µM. For the same compound, the TGI (NCI-H226 lung) was 6.58 µM, the GI50 (NCI-H23 lung) was 2.25 µM and the TGI (NCI-H23 lung) was 5.4 µM. It also gave a GI50 (NCI-H460 lung) of 1.83 µM, a TGI (NCI-H460 lung) of 3.47 µM and a GI50 (NCI/ADR-RES ovarian) of 7.88 µM. It also gave a TGI (NCI/ADR-RES ovarian) of 23.6 µM, a GI50 (OVCAR-3 ovarian) of 2.01 µM and a TGI (OVCAR-3 ovarian) of 3.87 µM. It also gave a GI50 (OVCAR-4 ovarian) of 1.76 µM, a TGI (OVCAR-4 ovarian) of 4.03 µM and a GI50 (OVCAR-5 ovarian) of 3.46 µM. For the same compound, the TGI (OVCAR-5 ovarian) was 13.8 µM, the GI50 (OVCAR-8 ovarian) was 2.34 µM and the TGI (OVCAR-8 ovarian) was 5.87 µM. For the same compound, the GI50 (PC-3 prostate) was 2.94 µM, the TGI (PC-3 prostate) was 11.2 µM and the GI50 (RXF 393 renal) was 2.1 µM. For the same compound, the TGI (RXF 393 renal) was 4.08 µM, the GI50 (SF-268 CNS) was 2.41 µM and the TGI (SF-268 CNS) was 7.36 µM. It also gave a GI50 (SF-295 CNS) of 1.77 µM, a TGI (SF-295 CNS) of 3.45 µM and a GI50 (SF-539 CNS) of 1.62 µM. For the same compound, the TGI (SF-539 CNS) was 3.03 µM, the GI50 (SK-MEL-2 melanoma) was 1.91 µM and the TGI (SK-MEL-2 melanoma) was 3.73 µM. The GI50 (SK-MEL-28 melanoma) was 1.6 µM, the TGI (SK-MEL-28 melanoma) was 3.05 µM and the GI50 (SK-MEL-5 melanoma) was 1.72 µM. It also gave a TGI (SK-MEL-5 melanoma) of 3.1 µM, a GI50 (SK-OV-3 ovarian) of 2.45 µM and a TGI (SK-OV-3 ovarian) of 6.65 µM. For the same compound, the GI50 (SN12C renal) was 4.5 µM, the TGI (SN12C renal) was 18.8 µM and the GI50 (SNB-19 CNS) was 2.36 µM. The TGI (SNB-19 CNS) was 6.56 µM, the GI50 (SNB-75 CNS) was 1.6 µM and the TGI (SNB-75 CNS) was 6.19 µM. For the same compound, the GI50 (SR leukemia) was 2.08 µM, the TGI (SR leukemia) was 5.43 µM and the GI50 (SW-620 colon) was 1.73 µM. For the same compound, the TGI (SW-620 colon) was 3.31 µM, the GI50 (T-47D breast) was 1.9 µM and the TGI (T-47D breast) was 4.92 µM. It also gave a GI50 (TK-10 renal) of 2.05 µM, a TGI (TK-10 renal) of 4.02 µM and a GI50 (UACC-257 melanoma) of 2.02 µM. It also gave a TGI (UACC-257 melanoma) of 4.37 µM, a GI50 (UACC-62 melanoma) of 2.77 µM and a TGI (UACC-62 melanoma) of 10.3 µM. For the same compound, the GI50 (UO-31 renal) was 3.37 µM and the TGI (UO-31 renal) was 14.8 µM.
